From PMC6670186, “Novel prodrugs of decitabine with greater metabolic stability and less toxicity” (Clinical Epigenetics, 2019)
Marks after values point to notes of the source that are not given here.

Tests used:
[1] = tested on: exogenous UCHL1 promoter and OSR2 promoter CpG island; experiment: Quantitative methylation-specific PCR of marker genes; format: cell-based, Human; settings: qMSP
Procedure: One microgram of EcoRV-digested genomic DNA was treated with sodium bisulfite as described previously. Bisulfite-treated DNA was resuspended in 40 μL of TE-buffer (10 mM Tris, pH 8.0; 1 mM EDTA, pH 8.0), and 1 μL was used for quantitative methylation-specific PCR (qMSP) using primers specific to methylated and unmethylated target loci, including MetLuc-UCHL1 promoter, OSR2 promoter, and UCHL1 promoter (Additional file 1: Table S1). As a fully unmethylated DNA control, genomic DNA from peripheral blood cells of a healthy person was amplified twice using a GenomiPhi DNA amplification kit (GE Healthcare Life Sciences; Little Chalfont, UK). As a fully methylated DNA control, the fully unmethylated DNA was methylated by SssI methylase (New England Biolabs; Beverly, MA).

Cytidine deaminase (CDA) = tested on: Cytidine deaminase (CDA); parameters: method as in J. Clinical Investigation, 1974, 53(3), 922-931; settings: substrate of CDA; ref J. Clinical Investigation, 1974, 53(3), 922-931; cited from earlier work
[2] = Partition coefficient (log P), shake-flask method, n-octanol/PBS; format: physicochemical
Procedure: The method employed HPLC with the following conditions: ZORBAX Bonus C18 column (4.6 × 150 mm, 3 μm); eluent: A = 10 mM HCO2NH4, B = acetonitrile, A:B = 50:50 (an isocratic mode for 5 min), and A:B = 99:1–20:80 (a gradient mode for 15 min); flow rate = 1.0 mL/min; oven temperature = 40 °C; detection = 240 nm.

[3] = Stability in phosphate-buffered saline; format: physicochemical; settings: for t1/2 in PBS: PBS solution at 37°C; for Stability t1/2 in PBS: PBS 37 °C, 20** + x h, 20 h = t1/2 in PBS of DAC, x = OR compound
Procedure: Five microliters of DAC derivatives (1.0 mg/100 μL of DMSO) was added to 200 μL of a stirred PBS solution at 37 °C. The mixture was stirred continuously for 1 day. The remaining of the starting derivatives was assayed using the HPLC analytical conditions as described above.

[4] = target: T1, human recombinant cytidine deaminase (Homo sapiens, UniProt P32320); experiment: Stability in the presence of cytidine deaminase; format: in vitro ADME; settings: for Enzymatic stability, retained: cytidine deaminase, after 2 h
T1 construct: His; purchased AT Gen Co. Ltd; Seoul, Korea
Excerpt: The remaining of the starting derivatives were continuously assayed using HPLC analytical conditions as described above.

[5] = Chemical stability in a protic solvent; format: physicochemical
[6] = Pharmacokinetics in mice, intraperitoneal; format: in vivo; settings: for AUC 0 → lim, DAC / AUC 0 → lim, Total / AUC 0 → lim, OR compound: plasma; for AUC 0 → lim, DAC: DAC (metabolite for OR compounds), equimolar dose; for AUC 0 → lim, Total: OR compound + metabolite DAC; for AUC 0 → lim, OR compound: dose equimolar to 0.20 mg/kg DAC
Procedure: Six-week-old female ICR mice were intraperitoneally injected with 0.20 mg/kg of DAC, 0.29 mg/kg of OR-2003, 0.32 mg/kg of OR-2009, 0.30 mg/kg of OR-2100, and 0.31 mg/kg of OR-2102. The doses were decided so that equivalent amounts of molar concentration would be administered. The blood plasma was collected before and at 5, 15, 30, 45, 60, 90, and 120 min after the treatment. All experimental procedures were approved by the Committee of National Cancer Center.

T1 sequence (P32320 whole entry): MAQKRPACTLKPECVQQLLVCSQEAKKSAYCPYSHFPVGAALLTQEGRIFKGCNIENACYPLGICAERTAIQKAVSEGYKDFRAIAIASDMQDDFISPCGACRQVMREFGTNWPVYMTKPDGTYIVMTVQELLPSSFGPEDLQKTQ

With `Nc1ncn([C@H]2C[C@H](OP(=O)(O)OC[C@H]3O[C@@H](n4cnc5c(=O)[nH]c(N)nc54)C[C@@H]3O)[C@@H](CO)O2)c(=O)n1` [guadecitabine, reference compound] the “dose with strongest effect of DNA demethylation” value [1] was 1.0 µM and the “DNA demethylation of exogenous UCHL1 promoter and OSR2 promoter CpG island” value ([1]; 0.0 to 10.0 μM) was “weaker demethylation effect than OR-2003 and OR-2100”.
For `Nc1ncn([C@@H]2O[C@H](CO)[C@@H](O)[C@H]2O)c(=O)n1` [AZA, 5-azacytidine], the Michaelis constant (Cytidine deaminase (CDA)) is given as 430 µM.
In the case of `C[Si](C)(OCC1OC(n2cnc(N)nc2=O)CC1O)C1CCCC1` (stereo not drawn) [Methyl, Methyl, c-Pentyl], the “Log PO/PBS” value [2] is reported as 2.16 and the “t1/2 in PBS” value [3] is reported as 15 h.
With `CC[Si](C)(CC)OC[C@H]1O[C@@H](n2cnc(N)nc2=O)C[C@@H]1O` [Ethyl, Ethyl, Methyl] the “enzymatic stability in the presence of CDA” value (shortened to “enzymatic stability … of CDA”) [4] was “stable in the presence of CDA”, the “Log PO/PBS” value [2] was 1.49 and the “t1/2 in PBS” value [3] was 4 h.
With `CCCC[Si](C)(C)OC[C@H]1O[C@@H](n2cnc(N)nc2=O)C[C@@H]1O` [Methyl, Methyl, n-Butyl] the “Log PO/PBS” value [2] was 4.56 and the “t1/2 in PBS” value [3] was 1.3 h.
For `C[Si](C)(Cc1ccccc1)OC[C@H]1O[C@@H](n2cnc(N)nc2=O)C[C@@H]1O` [Methyl, Methyl, Benzyl], the “enzymatic stability … of CDA” value [4] was “gradually degraded by CDA”, the “Log PO/PBS” value [2] was 1.73 and the “t1/2 in PBS” value [3] was 2.5 h.
In the case of `Nc1ccn([C@H]2C[C@H](O)[C@@H](CO)O2)c(=O)n1` [2'-deoxycytidine], the Michaelis constant (Cytidine deaminase (CDA)) is listed as 26 µM.
For `CCCCCCCC[Si](C)(C)OCC1OC(n2cnc(N)nc2=O)CC1O` (stereo not drawn) [Methyl, Methyl, n-Octyl], the “t1/2 in PBS” value [3] was 1.5 h.
For `CC[Si](CC)(OCC1OC(n2cnc(N)nc2=O)CC1O)C1CCCC1` (stereo not drawn) [Ethyl, Ethyl, c-Pentyl], the “Log PO/PBS” value [2] was 3.10 and the “t1/2 in PBS” value [3] was > 24 h.
In the case of `CC(C)(C)[Si](C)(C)OC[C@H]1O[C@@H](n2cnc(N)nc2=O)C[C@@H]1O` [Methyl, Methyl, t-Butyl], the “Log PO/PBS” value [2] is reported as 1.91, the “stability in a protic solvent” value [5] is reported as “stable” and the “t1/2 in PBS” value [3] is reported as > 24 h.
For `C[Si](C)(OC[C@H]1O[C@@H](n2cnc(N)nc2=O)C[C@@H]1O)C1CCCCC1` [OR-2009], the “Enzymatic stability, retained” value [4] was “Retain 75% after 2 h”, the “Log PO/PBS” value [2] was 2.52 and the “total AUC of OR compound and metabolite DAC compared with DAC” value [6] was “larger AUCs than that of DAC”. The “AUC 0 → lim, DAC” value [6] was 0.238 µM·h, the “AUC 0 → lim, Total” value [6] was 0.552 µM·h and the “AUC 0 → lim, OR compound” value [6] was 0.314 µM·h. For the same compound, the “half-life (time to release DAC)” value [3] was ≥ 14 h, the “Stability t1/2 in PBS” value [3] was 20** + 14 h and the “t1/2 in PBS” value [3] was 14 h.
For `CC(C)[Si](C)(C)OC[C@H]1O[C@@H](n2cnc(N)nc2=O)C[C@@H]1O` [Methyl, Methyl, i-Propyl], the “enzymatic stability … of CDA” value [4] was “stable in the presence of CDA”, the “Log PO/PBS” value [2] was 1.48 and the “t1/2 in PBS” value [3] was 12 h.
In the case of `Nc1nc(=O)n([C@@H]2O[C@H](CO)[C@@H](O)[C@H]2O)cc1F` [5-fluorocytidine], the Michaelis constant (Cytidine deaminase (CDA)) is given as 30 µM.
For `CC[Si](C)(C)OC[C@H]1O[C@@H](n2cnc(N)nc2=O)C[C@@H]1O` [Methyl, Methyl, Ethyl], the “t1/2 in PBS” value [3] was 0.9 h.
With `C[Si](C)(C)OC[C@H]1O[C@@H](n2cnc(N)nc2=O)C[C@@H]1O` [Methyl, Methyl, Methyl] the “stability in a protic solvent” value [5] was “unstable” and the “t1/2 in PBS” value [3] was “Unstable”.
For `CCC[Si](CC)(CC)OC[C@H]1O[C@@H](n2cnc(N)nc2=O)C[C@@H]1O` [OR-2102], the “enzymatic stability … of CDA” value [4] was “gradually degraded by CDA”, the “Enzymatic stability, retained” value [4] was “Retain 46% after 2 h” and the “Log PO/PBS” value [2] was 2.54. For the same compound, the “AUC 0 → lim, DAC” value [6] was 0.285 µM·h, the “AUC 0 → lim, Total” value [6] was 0.366 µM·h and the “AUC 0 → lim, OR compound” value [6] was 0.081 µM·h. For the same compound, the “half-life (time to release DAC)” value [3] was ≥ 14 h, the “Stability t1/2 in PBS” value [3] was 20** + 19 h and the “t1/2 in PBS” value [3] was 19 h.
In the case of `CC[Si](CC)(OC[C@H]1O[C@@H](n2cnc(N)nc2=O)C[C@@H]1O)C(C)C` [Ethyl, Ethyl, i-Propyl], the “Log PO/PBS” value [2] is reported as 2.56 and the “t1/2 in PBS” value [3] is reported as > 24 h.
In the case of `CCC[Si](CCC)(CCC)OC[C@H]1O[C@@H](n2cnc(N)nc2=O)C[C@@H]1O` [n-Propyl, n-Propyl, n-Propyl], the “Log PO/PBS” value [2] is reported as 5.20 and the “t1/2 in PBS” value [3] is reported as 22 h.
In the case of `Nc1ncn([C@H]2C[C@H](O)[C@@H](CO[Si](Cc3ccccc3)(Cc3ccccc3)Cc3ccccc3)O2)c(=O)n1` [Benzyl, Benzyl, Benzyl], the “Log PO/PBS” value [2] is reported as 4.69 and the “t1/2 in PBS” value [3] is reported as > 24 h.
